Data as given in ChEMBL document CHEMBL6153138, “Discovery of Novel Aromatic Urea-Imidazole Salt Derivatives for Cancer Therapy via Targeting ERK1/2” (J Med Chem, 2025).
The source made the active and inactive calls. The calls are words filed in the database; no cut-off is given here.

Key:
[1] = Half life in Sprague-Dawley rat at 1 mg/kg, iv by LC-MS/MS analysis; assay type: ADME, organism-based; conditions: in vivo
[2] = AUC (0 to infinity) in Sprague-Dawley rat at 1 mg/kg, iv by LC-MS/MS analysis; assay type: ADME, organism-based; conditions: in vivo
[3] = Half life in Sprague-Dawley rat at 10 mg/kg, po by LC-MS/MS analysis; assay type: ADME, organism-based; conditions: in vivo
[4] = Oral availability in Sprague-Dawley rat at 10 mg/kg by LC-MS/MS analysis; assay type: ADME, organism-based; conditions: in vivo
[5] = biological target: Mitogen-activated protein kinase 3 (Homo sapiens, UniProt P27361); assay: Binding affinity to ERK1 (unknown origin) assessed as dissociation constant by MST analysis
[6] = tested on: MCF7; assay: Upregulation of ERK1/2 phosphorylation expression in human MCF7 cells measured after 30 mins to 4 hrs by Western blot analysis; assay type: functional, cell-based; conditions: dose 0.5-2 µM, time 30-240 min
[7] = tested on: MCF7; assay: Effect on MEK1/2 phosphorylation expression in human MCF7 cells at 0.5 to 2 uM measured after 30 mins to 4 hrs by Western blot analysis; assay type: functional, cell-based; conditions: dose 0.5-2 µM, time 30-240 min
[8] = tested on: MCF7; assay: Effect on MEK1/2 expression in human MCF7 cells at 0.5 to 2 uM measured after 30 mins to 4 hrs by Western blot analysis; assay type: functional, cell-based; conditions: dose 0.5-2 µM, time 30-240 min
[9] = tested on: MCF7; assay: Activation of ERK1/2 pathway in human MCF7 cells assessed as increase in EGF-induced ERK phosphorylation at 2 uM incubated for 30 mins by Western blot analysis; assay type: cell-based; conditions: filed as activator
[10] = tested on: MCF7; assay: Antiproliferative activity against human MCF7 cells harbouring ERK1 knockout incubated for 48 hrs by CCK-8 method; assay type: functional, cell-based
[11] = tested on: MCF7; assay: Antiproliferative activity against human MCF7 cells harbouring ERK2 knockout incubated for 48 hrs by CCK-8 method; assay type: functional, cell-based
[12] = biological target: Vascular endothelial growth factor receptor 3 (Homo sapiens) (UniProt P35916); assay: Inhibition of human FLT4 at 10000 nM by DiscoverX KINOMEscan assay relative to control
[13] = biological target: Ribosomal protein S6 kinase alpha-1 (Homo sapiens, UniProt Q15418); assay: Inhibition of human RSK1 at 10000 nM by DiscoverX KINOMEscan assay relative to control
[14] = biological target: Serine/threonine-protein kinase TAO2 (Homo sapiens) (UniProt Q9UL54); assay: Inhibition of human TAO2 at 10000 nM by DiscoverX KINOMEscan assay relative to control
[15] = tested on: MCF7; assay: Inhibition of proliferation in human MCF7 cells at 0.5 to 2 uM incubated for 48 hrs by EdU incorporation assay; assay type: functional, cell-based; conditions: dose 0.5-2 µM
[16] = tested on: MCF7; assay: Inhibition of cell migration in human MCF7 cells at 0.5 to 2 uM incubated for 48 hrs by wound healing assay; assay type: functional, cell-based; conditions: dose 0.5-2 µM
[17] = tested on: MCF7; assay: Induction of apoptosis in human MCF7 cells assessed as increase in caspase-3 cleavage at 0.5 to 2 uM by Western blot analysis; assay type: functional, cell-based; conditions: dose 0.5-2 µM
[18] = tested on: MCF7; assay: Induction of apoptosis in human MCF7 cells assessed as early apoptotic cells at 0.5 uM incubated for 48 hrs by Annexin V/FITC and PI staining based flow cytometry analysis (reference value: 1.1%); assay type: functional
[19] = tested on: MCF7; assay: Induction of apoptosis in human MCF7 cells assessed as early apoptotic cells at 1 uM incubated for 48 hrs by Annexin V/FITC and PI staining based flow cytometry analysis (reference value: 1.1%); assay type: functional
[20] = tested on: MCF7; assay: Induction of apoptosis in human MCF7 cells assessed as late apoptotic cells at 0.5 uM incubated for 48 hrs by Annexin V/FITC and PI staining based flow cytometry analysis (reference value: 2.5%); assay type: functional
[21] = tested on: MCF7; assay: Induction of autophagy in human MCF7 cells assessed as upregulation of beclin1 expression incubated for 48 hrs by Western blotting analysis; assay type: functional, cell-based; conditions: dose 0.5-2 µM
[22] = tested on: MCF7; assay: Induction of autophagy in human MCF7 cells assessed as increase in Beclin-1 level at 1 uM by Western blot analysis; assay type: functional, cell-based
[23] = tested on: MCF7; assay: Induction of autophagic flux in human MCF7 cells assessed as appearance of multi membrane structure at 0.5 to 2 uM by TEM based analysis; assay type: functional, cell-based; conditions: dose 0.5-2 µM
[24] = tested on: MCF7; assay: Induction of apoptosis in human MCF7 cells assessed as late apoptotic cells at 1 uM incubated for 48 hrs by Annexin V/FITC and PI staining based flow cytometry analysis (reference value: 3.65%); assay type: functional
[25] = tested on: MCF7; assay: Induction of apoptosis in human MCF7 cells assessed as early apoptotic cells at 1 uM incubated for 48 hrs in presence of 3-methyladenine by Annexin V/FITC and PI staining based flow cytometry analysis (reference value: 8.14%); assay type: functional
[26] = tested on: MCF7; assay: Induction of apoptosis in human MCF7 cells assessed as late apoptotic cells at 1 uM incubated for 48 hrs in presence of 3-methyladenine by Annexin V/FITC and PI staining based flow cytometry analysis (reference value: 6.21%); assay type: functional
[27] = tested on: MCF7; assay: Induction of apoptosis in human MCF7 cells assessed as early apoptotic cells at 1 uM incubated for 48 hrs in presence of chloroquine by Annexin V/FITC and PI staining based flow cytometry analysis (reference value: 8.72%); assay type: functional
[28] = tested on: 4T1; assay: Antitumor activity against mouse 4T1 cells implanted in female BALB/c mouse model assessed as tumor necrosis at 25 to 50 mg/kg, po qd measured for 18 days by H and E staining based analysis; assay type: functional, organism-based; conditions: dose 25-50 mg/kg, time 18.0 day
[29] = Toxicity in female BALB/c mouse assessed as effect on heart at 25 to 50 mg/kg, po qd measured after 18 days by H and E staining based analysis; assay type: organism-based; conditions: in vivo, 432 h, dose 25-50 mg/kg, time 18 day
[30] = Toxicity in female BALB/c mouse assessed as effect on liver at 25 to 50 mg/kg, po qd measured after 18 days by H and E staining based analysis; assay type: organism-based; conditions: in vivo, 432 h, dose 25-50 mg/kg, time 18 day
[31] = Toxicity in female BALB/c mouse assessed as effect TG level in serum at 25 to 50 mg/kg, po qd measured after 18 days by biochemical analysis; assay type: organism-based; conditions: in vivo, 432 h, dose 25-50 mg/kg, time 18 day
[32] = tested on: 4T1; assay: Antitumor activity against mouse 4T1 cells implanted in female BALB/c mouse model assessed as tumor growth inhibition at 50 mg/kg, po qd measured for 18 days in presence of chloroquine relative to control; assay type: functional; conditions: 4T1, 432 h, time 18 day, read-out: TGI
[33] = tested on: 4T1; assay: Antitumor activity against mouse 4T1 cells implanted in female BALB/c mouse model assessed as increase in tumor cell necrosis at 50 mg/kg, po qd measured for 18 days in presence of chloroquine; assay type: functional, organism-based; conditions: time 18.0 day
[34] = Toxicity in female BALB/c mouse assessed as effect on liver at 50 mg/kg, po qd measured after 18 days in presence of chloroquine by H and E staining based analysis; assay type: organism-based; conditions: in vivo, 432 h, time 18 day
[35] = Toxicity in female BALB/c mouse assessed as effect on lung at 50 mg/kg, po qd measured after 18 days in presence of chloroquine by H and E staining based analysis; assay type: organism-based; conditions: in vivo, 432 h, time 18 day
[36] = tested on: 4T1-Luc; assay: Anti-metastatic activity in mouse 4T1-Luc cells assessed as reduction in enlarged alveolar space at 25 to 50 mg/kg, po measured after 20 days by H and E staining based analysis; assay type: functional, organism-based; conditions: dose 25-50 mg/kg, time 20.0 day

Chain of Mitogen-activated protein kinase 3 (P27361 whole entry): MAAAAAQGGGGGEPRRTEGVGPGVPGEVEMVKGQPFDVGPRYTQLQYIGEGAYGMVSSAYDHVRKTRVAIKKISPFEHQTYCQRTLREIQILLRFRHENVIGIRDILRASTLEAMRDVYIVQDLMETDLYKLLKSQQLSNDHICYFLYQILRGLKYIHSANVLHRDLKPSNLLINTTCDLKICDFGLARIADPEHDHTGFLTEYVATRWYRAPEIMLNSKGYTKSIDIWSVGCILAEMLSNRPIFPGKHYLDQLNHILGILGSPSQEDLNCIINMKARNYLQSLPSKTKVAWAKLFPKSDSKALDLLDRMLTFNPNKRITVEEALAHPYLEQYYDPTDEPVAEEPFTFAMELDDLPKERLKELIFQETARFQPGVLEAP
Chain of Ribosomal protein S6 kinase alpha-1 (Q15418 whole entry): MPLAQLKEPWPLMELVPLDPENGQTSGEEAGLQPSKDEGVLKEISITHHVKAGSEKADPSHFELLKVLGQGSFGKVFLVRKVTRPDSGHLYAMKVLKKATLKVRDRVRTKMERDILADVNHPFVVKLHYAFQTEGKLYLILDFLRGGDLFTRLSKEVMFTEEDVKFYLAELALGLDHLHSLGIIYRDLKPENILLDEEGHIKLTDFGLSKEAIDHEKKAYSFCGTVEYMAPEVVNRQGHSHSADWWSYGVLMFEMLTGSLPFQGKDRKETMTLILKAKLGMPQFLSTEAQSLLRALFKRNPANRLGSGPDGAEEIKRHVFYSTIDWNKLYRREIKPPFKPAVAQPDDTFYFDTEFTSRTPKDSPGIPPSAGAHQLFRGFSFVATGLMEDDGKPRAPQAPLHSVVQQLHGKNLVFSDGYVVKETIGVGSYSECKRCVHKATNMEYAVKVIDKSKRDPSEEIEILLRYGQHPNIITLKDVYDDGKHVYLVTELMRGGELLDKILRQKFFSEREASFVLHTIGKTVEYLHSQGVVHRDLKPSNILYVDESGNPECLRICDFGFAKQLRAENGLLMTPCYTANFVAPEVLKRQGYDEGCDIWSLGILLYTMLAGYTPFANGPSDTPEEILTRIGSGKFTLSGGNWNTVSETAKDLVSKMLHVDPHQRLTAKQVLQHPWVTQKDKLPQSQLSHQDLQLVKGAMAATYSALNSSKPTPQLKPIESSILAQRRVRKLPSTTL
Chain of Serine/threonine-protein kinase TAO2 (Homo sapiens) (Q9UL54 whole entry): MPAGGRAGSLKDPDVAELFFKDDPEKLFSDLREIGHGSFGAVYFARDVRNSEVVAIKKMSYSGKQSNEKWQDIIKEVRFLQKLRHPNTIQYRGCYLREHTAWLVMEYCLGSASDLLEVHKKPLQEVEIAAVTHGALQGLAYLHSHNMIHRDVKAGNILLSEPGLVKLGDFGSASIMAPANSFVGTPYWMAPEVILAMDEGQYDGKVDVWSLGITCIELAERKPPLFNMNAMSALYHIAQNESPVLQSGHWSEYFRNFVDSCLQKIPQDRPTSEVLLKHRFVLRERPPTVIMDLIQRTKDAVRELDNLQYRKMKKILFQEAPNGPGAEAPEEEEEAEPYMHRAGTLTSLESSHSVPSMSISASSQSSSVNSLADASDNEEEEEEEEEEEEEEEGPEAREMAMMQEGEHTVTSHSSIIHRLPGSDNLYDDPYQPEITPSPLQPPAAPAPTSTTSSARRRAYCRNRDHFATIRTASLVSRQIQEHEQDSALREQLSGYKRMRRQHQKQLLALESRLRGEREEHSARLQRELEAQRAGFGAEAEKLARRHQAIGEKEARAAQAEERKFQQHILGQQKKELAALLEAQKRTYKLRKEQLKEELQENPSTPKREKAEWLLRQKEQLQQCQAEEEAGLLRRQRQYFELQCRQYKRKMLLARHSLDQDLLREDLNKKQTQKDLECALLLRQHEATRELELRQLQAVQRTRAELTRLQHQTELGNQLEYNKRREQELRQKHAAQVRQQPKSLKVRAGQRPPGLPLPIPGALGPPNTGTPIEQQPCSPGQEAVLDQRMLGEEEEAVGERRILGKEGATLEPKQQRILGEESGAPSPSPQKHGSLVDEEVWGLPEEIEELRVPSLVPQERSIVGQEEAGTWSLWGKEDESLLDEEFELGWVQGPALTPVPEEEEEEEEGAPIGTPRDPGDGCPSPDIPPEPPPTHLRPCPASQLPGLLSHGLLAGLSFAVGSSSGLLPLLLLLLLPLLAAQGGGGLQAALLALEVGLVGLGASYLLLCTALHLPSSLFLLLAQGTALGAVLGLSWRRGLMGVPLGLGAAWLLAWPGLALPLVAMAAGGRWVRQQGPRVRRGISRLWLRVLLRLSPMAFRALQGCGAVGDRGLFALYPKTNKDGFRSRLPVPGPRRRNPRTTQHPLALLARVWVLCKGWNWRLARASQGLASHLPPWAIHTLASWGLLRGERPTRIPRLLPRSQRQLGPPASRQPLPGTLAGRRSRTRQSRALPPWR
Chain of Vascular endothelial growth factor receptor 3 (Homo sapiens) (P35916 whole entry): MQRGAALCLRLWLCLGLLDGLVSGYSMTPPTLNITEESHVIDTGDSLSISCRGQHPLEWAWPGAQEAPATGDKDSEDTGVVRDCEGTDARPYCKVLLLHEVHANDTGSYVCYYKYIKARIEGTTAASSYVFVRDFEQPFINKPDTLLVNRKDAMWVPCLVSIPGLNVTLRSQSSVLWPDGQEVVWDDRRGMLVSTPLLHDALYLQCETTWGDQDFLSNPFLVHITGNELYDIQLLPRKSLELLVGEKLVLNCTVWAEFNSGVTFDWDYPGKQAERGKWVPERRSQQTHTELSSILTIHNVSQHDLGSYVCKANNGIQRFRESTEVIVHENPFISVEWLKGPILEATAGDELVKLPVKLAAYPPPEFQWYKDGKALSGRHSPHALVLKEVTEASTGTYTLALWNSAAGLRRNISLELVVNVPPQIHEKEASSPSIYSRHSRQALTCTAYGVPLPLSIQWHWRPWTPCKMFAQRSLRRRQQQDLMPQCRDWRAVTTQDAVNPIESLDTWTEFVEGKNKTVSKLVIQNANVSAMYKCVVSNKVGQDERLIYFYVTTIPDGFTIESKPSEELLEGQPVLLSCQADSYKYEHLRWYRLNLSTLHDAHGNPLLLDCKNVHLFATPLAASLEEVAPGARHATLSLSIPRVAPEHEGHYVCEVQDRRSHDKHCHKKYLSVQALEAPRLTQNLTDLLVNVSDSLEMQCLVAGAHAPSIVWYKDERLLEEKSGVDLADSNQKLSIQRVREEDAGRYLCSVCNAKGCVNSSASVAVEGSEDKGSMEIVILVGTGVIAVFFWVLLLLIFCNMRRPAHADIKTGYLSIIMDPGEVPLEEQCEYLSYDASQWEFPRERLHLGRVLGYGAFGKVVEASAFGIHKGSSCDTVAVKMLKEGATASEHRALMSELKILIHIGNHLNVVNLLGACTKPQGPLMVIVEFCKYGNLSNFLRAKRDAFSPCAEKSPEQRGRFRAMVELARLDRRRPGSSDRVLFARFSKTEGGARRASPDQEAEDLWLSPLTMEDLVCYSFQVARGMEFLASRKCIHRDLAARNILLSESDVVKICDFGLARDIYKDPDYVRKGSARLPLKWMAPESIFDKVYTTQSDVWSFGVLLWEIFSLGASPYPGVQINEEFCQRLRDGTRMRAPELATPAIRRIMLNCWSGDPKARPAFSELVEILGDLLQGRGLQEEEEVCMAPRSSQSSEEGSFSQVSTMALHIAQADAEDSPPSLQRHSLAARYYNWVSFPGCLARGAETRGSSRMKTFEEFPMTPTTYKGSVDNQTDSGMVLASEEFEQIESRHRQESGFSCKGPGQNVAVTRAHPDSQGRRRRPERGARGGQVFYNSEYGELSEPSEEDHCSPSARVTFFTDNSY

- half-life [1]: 3.15 h
- AUC(0-inf) [2]: 1100 ng·h/mL
- half-life [3]: 2.51 h
- bioavailability [4]: 37.1%
- Kd [5]: 0.159 µM
- inhibition [12]: 18%
- inhibition [13]: 8%
- inhibition [14]: 14%
SMILES: O=C(Nc1cc(C(F)(F)F)cc(C(F)(F)F)c1)N[C@@H](Cc1ccccc1)Cn1c[n+](Cc2ccc3ccccc3c2)c2ccccc21.[Br-]
- Activity [6]: Dose-dependent-effect
- Activity [7]: inactive
- Activity [8]: inactive
- Activity [9]: Active
- Activity [10]: Not active; Compound Showed Less Sensitivity Response
- Activity [11]: Not active; Compound Showed Less Sensitivity Response
- inhibition [15]: Active
- inhibition [16]: Active
- Activity [17]: Active
- Activity [18]: 9.9%
- Activity [19]: 11.6%
- Activity [20]: 7.8%
- Activity [21]: Dose-dependent-effect
- Activity [22]: Active
- Activity [23]: Active
- Activity [24]: 13.7%
- Activity [25]: 3.81%
- Activity [26]: 25.1%
- Activity [27]: 4.92%
- Activity [28]: Active
- Activity [29]: Non-toxic
- Activity [30]: Non-toxic
- Activity [31]: Non-toxic
- inhibition in vivo at 50 mg/kg [32]: 88.1%
- Activity [33]: Active
- Activity [34]: Non-toxic
- Activity [35]: Non-toxic
- Activity [36]: Active
